{"source": "ChEMBL document CHEMBL1126757", "about": "“Benzoquinazoline inhibitors of thymidylate synthase: enzyme inhibitory activity and cytotoxicity of some 3-amino- and 3-methylbenzo[f]quinazolin-1(2H)-ones” (J Med Chem, 1993)"}
{"tested_on": "SW480", "assay": "cells", "conditions": "Homo sapiens", "units": {"IC50": "µM"}}
{"smiles": "Nc1nc2ccc3ccccc3c2c(=O)[nH]1", "IC50": 52}
{"smiles": "Nc1nc2ccc3ccc(Cl)cc3c2c(=O)[nH]1", "IC50": 3}
{"smiles": "Nc1nc2c(c(=O)[nH]1)-c1cccc(F)c1CC2", "IC50": "> 100"}
{"smiles": "CSc1ccc2c(c1)-c1c(nc(N)[nH]c1=O)CC2", "IC50": 60}
{"smiles": "Nc1nc2c(c(=O)[nH]1)-c1ccc3ccccc3c1CC2", "IC50": 30}
{"smiles": "Cc1cc(C)c2c(c1)-c1c(nc(N)[nH]c1=O)CC2", "IC50": "> 100"}
{"smiles": "Nc1nc(O)c2c(n1)CCc1ccc(F)cc1-2", "IC50": 80}
{"smiles": "Nc1ccc2c(c1)-c1c(nc(N)[nH]c1=O)CC2", "IC50": "> 100"}
{"smiles": "Oc1nc(NCc2ccccc2)nc2ccc3ccc(Cl)cc3c12", "IC50": 12}
{"smiles": "Nc1nc(O)c2c(ccc3ccc(Br)cc32)n1", "IC50": 10}
{"smiles": "CCc1ccc2ccc3nc(N)nc(O)c3c2c1", "IC50": 20}
{"smiles": "Cc1ccc2c(c1)-c1c(O)nc(N)nc1CC2", "IC50": "> 100"}
{"smiles": "Cc1nc(O)c2c(ccc3c(I)cccc32)n1", "IC50": 50}
{"smiles": "Cc1cc2nc(N)nc(O)c2c2cc(Cl)ccc12", "IC50": 2}
{"smiles": "Nc1nc2ccc3cc(F)ccc3c2c(=O)[nH]1", "IC50": 50}
{"smiles": "Cc1nc(O)c2c(ccc3ccc(Cl)cc32)n1", "IC50": 10}
{"smiles": "Cc1nc(O)c2c(ccc3ccc(Br)cc32)n1", "IC50": 6}
{"smiles": "COc1ccc2c(c1)-c1c(O)nc(N)nc1CC2", "IC50": 25}
{"smiles": "Cc1nc(O)c2c(ccc3ccccc32)n1", "IC50": "> 100"}
{"smiles": "Nc1cc(N)c2c(ccc3nc(N)nc(O)c32)c1", "IC50": "> 100"}
{"smiles": "C#Cc1ccc2ccc3nc(N)nc(O)c3c2c1", "IC50": 20}
{"smiles": "Nc1nc2ccc3ccc(O)cc3c2c(=O)[nH]1", "IC50": 40}
{"biological_target": "T1, Thymidylate synthase (Escherichia coli, UniProt C3SWJ7)", "T1 sequence (C3SWJ7 whole entry)": "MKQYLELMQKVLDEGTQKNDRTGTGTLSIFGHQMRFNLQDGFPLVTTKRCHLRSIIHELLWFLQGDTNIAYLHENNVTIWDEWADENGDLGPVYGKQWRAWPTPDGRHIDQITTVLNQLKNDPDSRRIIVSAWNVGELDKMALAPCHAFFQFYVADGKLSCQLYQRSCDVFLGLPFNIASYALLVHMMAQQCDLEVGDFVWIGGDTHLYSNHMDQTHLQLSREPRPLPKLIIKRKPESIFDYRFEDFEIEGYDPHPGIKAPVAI", "assay": "Inhibition against thymidylate synthase (TS) in Escherichia coli", "conditions": "read-out: I50", "units": {"IC50": "µM"}}
{"smiles": "COc1ccc2c(c1)CCc1nc(N)nc(O)c1-2", "IC50": 240}
{"smiles": "Nc1nc(O)c2c(ccc3cc(Br)c([N+](=O)[O-])cc32)n1", "IC50": 28}
{"smiles": "Nc1nc2ccc3cc([N+](=O)[O-])cc([N+](=O)[O-])c3c2c(=O)[nH]1", "IC50": 104}
{"smiles": "Cc1cc2nc(N)[nH]c(=O)c2c2ccccc12", "IC50": 1}
{"smiles": "Cc1cc(C)c2ccc3nc(N)[nH]c(=O)c3c2c1", "IC50": 5}
{"smiles": "Nc1nc2c(c(=O)[nH]1)-c1ccc(Cl)cc1CC2", "IC50": 334}
{"smiles": "CC1Cc2nc(N)nc(O)c2-c2cc(Cl)ccc21", "note": "(stereo not given)", "IC50": 3.6}
{"smiles": "COc1cccc2c1CCc1nc(N)nc(O)c1-2", "IC50": 250}
{"smiles": "COc1cc2c(cc1OC)-c1c(O)nc(N)nc1CC2", "IC50": 762}
{"smiles": "Nc1nc2ccc3ccccc3c2c(=O)[nH]1", "IC50": 7}
{"smiles": "Nc1nc2ccc3ccc(Cl)cc3c2c(=O)[nH]1", "IC50": 0.52}
{"smiles": "Nc1nc2c(c(=O)[nH]1)-c1cccc(F)c1CC2", "IC50": 99}
{"smiles": "CSc1ccc2c(c1)-c1c(nc(N)[nH]c1=O)CC2", "IC50": 1.2}
{"smiles": "Nc1nc2ccc3c(Br)c(N)c(Br)cc3c2c(=O)[nH]1", "IC50": 25}
{"smiles": "Nc1nc(O)c2c(n1)CCc1ccc(F)cc1-2", "IC50": 4}
{"smiles": "Nc1ccc2c(c1)-c1c(nc(N)[nH]c1=O)CC2", "IC50": 16.9}
{"smiles": "Nc1nc(O)c2c(n1)CCc1cc([N+](=O)[O-])ccc1-2", "IC50": 43}
{"smiles": "CC1(C)Cc2nc(N)nc(O)c2-c2ccccc21", "IC50": 49.6}
{"smiles": "Nc1nc(O)c2c(ccc3ccc(Br)cc32)n1", "IC50": 0.267}
{"smiles": "CCc1ccc2ccc3nc(N)nc(O)c3c2c1", "IC50": 7.7}
{"smiles": "Cc1ccc2c(c1)-c1c(O)nc(N)nc1CC2", "IC50": 5.8}
{"smiles": "Cc1cc2nc(N)nc(O)c2c2cc(Cl)ccc12", "IC50": 0.17}
{"smiles": "Nc1nc2ccc3cc(F)ccc3c2c(=O)[nH]1", "IC50": 231}
{"smiles": "Cc1nc(O)c2c(ccc3ccc(Br)cc32)n1", "IC50": 6.9}
{"smiles": "CCSc1ccc2ccc3nc(N)nc(O)c3c2c1", "IC50": 4.3}
{"smiles": "Nc1nc2c(c(=O)[nH]1)-c1cccc(Br)c1CC2", "IC50": 109}
{"smiles": "COc1ccc2c(c1)-c1c(O)nc(N)nc1CC2", "IC50": 6}
{"smiles": "Nc1nc2ccc3c([N+](=O)[O-])c(Br)ccc3c2c(=O)[nH]1", "IC50": 104}
{"smiles": "CSc1ccc2ccc3nc(N)nc(O)c3c2c1", "IC50": 1.6}
{"smiles": "Nc1cc(N)c2c(ccc3nc(N)nc(O)c32)c1", "IC50": 5.12}
{"smiles": "C#Cc1ccc2ccc3nc(N)nc(O)c3c2c1", "IC50": 14}
{"smiles": "CC1Cc2nc(N)nc(O)c2-c2ccccc21", "note": "(stereo not given)", "IC50": 23}
{"smiles": "Nc1ccc2c(c1)CCc1nc(N)[nH]c(=O)c1-2", "IC50": 89}
{"smiles": "Cc1cccc2c1CCc1nc(N)[nH]c(=O)c1-2", "IC50": 59}
{"smiles": "Nc1nc2ccc3ccc(O)cc3c2c(=O)[nH]1", "IC50": 1.84}
{"tested_on": "Thymidylate synthase (Bos taurus)", "assay": "Tested against thymidylate synthase (TS) in calf thymus at 765 uM", "conditions": "not given", "units": {"inhibition": "%"}}
{"smiles": "COc1cc2c(cc1OC)-c1c(O)nc(N)nc1CC2", "inhibition": 25}
{"biological_target": "T1, Thymidylate synthase", "assay": "Tested against thymidylate synthase (TS) in E. coli", "conditions": "read-out: I50", "units": {"IC50": "µM"}}
{"smiles": "Cc1nc(O)c2c(n1)CCc1ccc(I)cc1-2", "IC50": 19.8}
{"smiles": "Cc1nc(O)c2c(ccc3ccccc32)n1", "IC50": 30.1}
{"biological_target": "T1, Thymidylate synthase", "assay": "Tested for inhibition against thymidylate synthase (TS) in Escherichia coli", "conditions": "not given", "units": {"IC50": "µM"}}
{"smiles": "Nc1nc2c(c(=O)[nH]1)-c1ccc3ccccc3c1CC2", "IC50": 36}
{"smiles": "Cc1cc(C)c2c(c1)-c1c(nc(N)[nH]c1=O)CC2", "IC50": 13}
{"biological_target": "Thymidylate synthase (Homo sapiens, UniProt P04818)", "sequence (P04818 whole entry)": "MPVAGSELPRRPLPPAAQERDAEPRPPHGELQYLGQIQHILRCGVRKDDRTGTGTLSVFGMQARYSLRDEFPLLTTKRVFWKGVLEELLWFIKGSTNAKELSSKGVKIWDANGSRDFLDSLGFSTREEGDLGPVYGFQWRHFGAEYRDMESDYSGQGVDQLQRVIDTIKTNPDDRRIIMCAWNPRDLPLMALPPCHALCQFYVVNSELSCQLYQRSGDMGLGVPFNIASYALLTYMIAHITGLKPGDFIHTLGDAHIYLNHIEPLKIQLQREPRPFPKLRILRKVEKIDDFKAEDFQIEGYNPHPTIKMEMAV", "assay": "not given", "conditions": "not given", "units": {"IC50": "µM"}}
{"smiles": "Nc1nc2ccc3cc(Cl)ccc3c2c(=O)[nH]1", "IC50": 45.4}
{"smiles": "Nc1nc2ccc3cc([N+](=O)[O-])cc([N+](=O)[O-])c3c2c(=O)[nH]1", "IC50": 145}
{"smiles": "CC1Cc2nc(N)nc(O)c2-c2cc(Cl)ccc21", "note": "(stereo not given)", "IC50": 0.37}
{"smiles": "Nc1nc2ccc3c(Br)cccc3c2c(=O)[nH]1", "IC50": 8.9}
{"smiles": "Nc1nc2ccc3ccccc3c2c(=O)[nH]1", "IC50": 1.08}
{"smiles": "Nc1nc2ccc3ccc(Cl)cc3c2c(=O)[nH]1", "IC50": 0.025}
{"smiles": "Nc1nc2c(c(=O)[nH]1)-c1cccc(F)c1CC2", "IC50": 83.6}
{"smiles": "Nc1ccc2c(c1)-c1c(nc(N)[nH]c1=O)CC2", "IC50": 13.5}
{"smiles": "CC1(C)Cc2nc(N)nc(O)c2-c2ccccc21", "IC50": 43.9}
{"smiles": "Nc1nc(O)c2c(ccc3ccc(Br)cc32)n1", "IC50": 0.022}
{"smiles": "CCc1ccc2ccc3nc(N)nc(O)c3c2c1", "IC50": 0.49}
{"smiles": "Cc1ccc2c(c1)-c1c(O)nc(N)nc1CC2", "IC50": 0.72}
{"smiles": "Nc1nc2ccc3c(Cl)cccc3c2c(=O)[nH]1", "IC50": 26}
{"smiles": "Cc1cc2nc(N)nc(O)c2c2cc(Cl)ccc12", "IC50": 0.02}
{"smiles": "Nc1nc2ccc3cc(F)ccc3c2c(=O)[nH]1", "IC50": 44}
{"smiles": "CCSc1ccc2ccc3nc(N)nc(O)c3c2c1", "IC50": 3.28}
{"smiles": "COc1ccc2c(c1)-c1c(O)nc(N)nc1CC2", "IC50": 3.6}
{"smiles": "CSc1ccc2ccc3nc(N)nc(O)c3c2c1", "IC50": 0.46}
{"smiles": "Nc1cc(N)c2c(ccc3nc(N)nc(O)c32)c1", "IC50": 7.8}
{"smiles": "C#Cc1ccc2ccc3nc(N)nc(O)c3c2c1", "IC50": 0.6}
{"smiles": "Cc1cc2nc(N)[nH]c(=O)c2c2ccc(Cl)cc12", "IC50": 6.9}
{"smiles": "Nc1nc2ccc3ccc(O)cc3c2c(=O)[nH]1", "IC50": 0.48}
{"smiles": "Nc1nc2ccc3cc(F)cc([N+](=O)[O-])c3c2c(=O)[nH]1", "IC50": 34.5}
